Measured values as given in PMC12487869, “Toward Imaging of the GABA Transporter Type 1 In Vivo: Quantitative Evaluation of 4 Novel PET Radiotracers in Nonhuman Primates” (Journal of Nuclear Medicine, 2025).

Experiment: Metabolite analysis of arterial plasma (unmetabolized parent fraction), column-switching HPLC
Assay type: in vivo, rhesus monkeys (Macaca mulatta)
Conditions: mean ± SD
Procedure: Arterial blood samples were collected for each scan to measure the input function. Metabolite analysis was performed using an automatic column-switching high-performance liquid chromatography system ([22]) for 7 arterial blood samples collected at 5, 15, 30, 60, 90, 120, and 180 min. The radiometabolite-corrected arterial plasma input function was obtained by calculating the product of the fitted total plasma (fitted with a sum of exponentials) and unmetabolized parent fraction curves (using an integrated γ-function ([23])).

`Cc1ccccc1C(=CCCN1CCCC(C(=O)O)C1)c1ccccc1[18F]` (centres unmarked) [^18F-GATT-44] showed a Parent compound (30 min) of 88 ± 4% and a Parent compound (90 min) of 83 ± 6%.
